In patent US20170088545A1, “CARBOXAMIDE INHIBITORS” (Norvartis AG, priority 2014, published 2017):

Legend:
Smurf-1 = Smurf-1 (Homo sapiens, UniProt Q9HCE7); test: HECT E3 ligase autoubiquitinylation TR-FRET assay, Smurf-1; type: biochemical; conditions: 45 min incubation, 8-point dose-response
Description: (§1) To determine the HECT E3 ligase selectivity of the compounds, a panel of biochemical HECT E3 ligase autoubiquitinylation assays was employed (Smurf-1, Smurf-2, WWP1, WWP2, ITCH, Nedd4, Nedd4L and E6AP). The conjugation of ubiquitin to a protein substrate is a multistep process. In an initial ATP-requiring step, a thioester bond is formed between the carboxyl terminus of ubiquitin and an internal cystein residue of the ubiquitin-activating enzyme (E1). Activated ubiquitin is then transferred to a specific cystein residue of an ubiquitin-conjugating enzyme (E2). E2s donate ubiquitin to a HECT E3 ligase (E3) from which it is transferred to the substrate protein. HECT E3 ligases can auto-ubiquitinylate. This event is detected in the TR-FRET (Time-Resolved Fluorescence Resonance Energy Transfer) assay used in this panel. The reaction mix contains E1, E2, tagged-E3, biotin-conjugated ubiquitin, the compound and ATP in a suitable buffer and is incubated for 45 minutes to allow auto-ubiquitinylation of the E3 ligase. To measure the extent of ubiquitinylated E3 ligase by TR-FRET, the donor fluorophore Europium cryptate (Eu3+ cryptate), conjugated to streptavidin which subsequently binds to biotinylated ubiquitin, and the modified allophycocyanin XL665 (HTRF® primary acceptor fluorophore) coupled to a tag-specific antibody (HA, His or GST), which recognizes the respective E3 ligase fusion proteins, are added after the reaction is complete. When these two fluorophores are brought together by a biomolecular interaction (in this case ubiquitinylation of the E3 ligase), a portion of the energy captured by the Cryptate during excitation is released through fluorescence emission at 620 nm, while the remaining energy is transferred to XL665. This energy is then released by XL665 as specific fluorescence at 665 nm. Light at 665 nm is emitted only through FRET with Europium.
(§2) Test and reference compounds are prepared at 180× [final] in 90% DMSO, and diluted 1:3 in 90% DMSO.
(§3) For the biochemical assay panel, 50 nl of the test compounds, reference compounds and buffer/DMSO control are transferred to the respective wells of a 384-well white GREINER “SMALL VOLUME” PS plate. The assay panel is run at room temperature on a Biomek FX liquid handling workstation. To the assay plates containing 50 nl compound or control solutions in 90% DMSO, 4.5 ul of E3 ligase solution were added per well, followed by 4.5 ul of the pre-incubated E1/E2/Ub mix or the pre-diluted ubiquitin (LOW control). Plates are shaken vigorously after each addition. In this assay the compound concentrations range from 3 nM to 10 uM in an 8-point dose-response curve.
(§4) After 45 min of incubation the ubiquitinylation reactions were stopped by adding 4.5 ul 2 mM NEM, immediately followed by 4.5 ul of a detection solution including the XL665-labeled antibody and the streptavidin-coupled europium to give a total volume of 18 ul. After an incubation time of 45 min in the dark, the plates are transferred into the Pherastar fluorescence reader to measure the TR-FRET signal.

Smurf-2 = Smurf-2 (Homo sapiens, UniProt Q9HAU4); test: HECT E3 ligase autoubiquitinylation TR-FRET assay, Smurf-2; type: biochemical; conditions: 45 min incubation, 8-point dose-response
Description: as §1, §2, §3, §4

Sequence of Smurf-2 (Q9HAU4 whole entry, species assumed): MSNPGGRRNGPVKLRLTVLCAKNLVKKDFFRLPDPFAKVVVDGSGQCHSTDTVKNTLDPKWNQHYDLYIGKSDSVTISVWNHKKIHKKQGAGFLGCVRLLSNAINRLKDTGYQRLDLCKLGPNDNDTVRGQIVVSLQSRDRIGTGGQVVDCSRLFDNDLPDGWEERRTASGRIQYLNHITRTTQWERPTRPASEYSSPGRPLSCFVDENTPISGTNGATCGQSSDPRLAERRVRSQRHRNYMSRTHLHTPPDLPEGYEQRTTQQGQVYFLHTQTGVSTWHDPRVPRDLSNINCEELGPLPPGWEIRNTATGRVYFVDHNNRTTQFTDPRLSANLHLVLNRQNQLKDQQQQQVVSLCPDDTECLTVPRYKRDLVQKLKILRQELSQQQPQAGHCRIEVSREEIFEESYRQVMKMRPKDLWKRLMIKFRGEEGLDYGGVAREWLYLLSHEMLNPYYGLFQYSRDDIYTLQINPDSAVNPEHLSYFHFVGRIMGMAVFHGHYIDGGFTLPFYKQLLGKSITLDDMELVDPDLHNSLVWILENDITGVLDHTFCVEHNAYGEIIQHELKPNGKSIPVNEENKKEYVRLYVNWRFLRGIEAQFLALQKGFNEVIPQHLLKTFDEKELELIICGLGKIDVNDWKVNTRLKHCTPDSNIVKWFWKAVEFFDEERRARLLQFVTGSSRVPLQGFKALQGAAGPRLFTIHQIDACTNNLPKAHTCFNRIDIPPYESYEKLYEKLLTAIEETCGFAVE
Sequence of Smurf-1 (Q9HCE7 whole entry): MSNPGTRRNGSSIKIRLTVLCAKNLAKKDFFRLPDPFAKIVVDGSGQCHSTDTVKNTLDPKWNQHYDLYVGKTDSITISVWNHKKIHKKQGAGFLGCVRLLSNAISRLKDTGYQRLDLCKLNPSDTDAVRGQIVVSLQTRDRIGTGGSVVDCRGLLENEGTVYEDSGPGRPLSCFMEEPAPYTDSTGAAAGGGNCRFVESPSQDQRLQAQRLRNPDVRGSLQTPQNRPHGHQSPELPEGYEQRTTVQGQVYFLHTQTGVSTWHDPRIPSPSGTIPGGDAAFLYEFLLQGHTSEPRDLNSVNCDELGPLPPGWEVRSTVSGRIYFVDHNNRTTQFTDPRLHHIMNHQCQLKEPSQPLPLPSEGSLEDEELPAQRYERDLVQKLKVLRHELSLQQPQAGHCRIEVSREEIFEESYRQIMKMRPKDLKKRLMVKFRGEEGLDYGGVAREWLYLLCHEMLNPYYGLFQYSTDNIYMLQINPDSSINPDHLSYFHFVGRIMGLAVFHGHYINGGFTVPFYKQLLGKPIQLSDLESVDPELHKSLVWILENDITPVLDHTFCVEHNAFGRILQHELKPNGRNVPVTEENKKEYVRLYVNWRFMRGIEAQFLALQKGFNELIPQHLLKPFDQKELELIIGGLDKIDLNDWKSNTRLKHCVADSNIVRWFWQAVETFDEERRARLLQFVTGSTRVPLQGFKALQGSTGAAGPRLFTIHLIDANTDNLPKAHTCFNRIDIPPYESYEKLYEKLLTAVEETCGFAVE

IC50 (Smurf-1) [nM] | IC50 (Smurf-2) [nM] | SMILES
13.3 | 5400 | Cc1c(NC(=O)c2noc(-c3ccc(C4CC4)cc3Cl)c2Cl)c(=O)n(-c2ccccc2F)n1C [Example 030, 4-Chloro-5-(2-chloro-4-cyclopropylphenyl)-N-(2-(2-fluorophenyl)-1,5-dimethyl-3-oxo-2,3-dihydro-1H-pyrazol-4-yl)isoxazole-3-carboxamide]
13.4 | 3660 | Cc1c(C(=O)Nc2c(C)n(C)n(-c3ccccc3F)c2=O)noc1-c1ccc(C2CC2)cc1Cl [Example 002, 5-(2-Chloro-4-cyclopropylphenyl)-N-(2-(2-fluorophenyl)-1,5-dimethyl-3-oxo-2,3-dihydro-1H-pyrazol-4-yl)-4-methylisoxazole-3-carboxamide]
883 | > 10000 | Cc1c(C(=O)Nc2c(C)n(C)n(-c3ccccc3F)c2=O)noc1-c1ccc(C(F)(F)F)cc1 [Example 008, N-(2-(2-Fluorophenyl)-1,5-dimethyl-3-oxo-2,3-dihydro-1H-pyrazol-4-yl)-4-methyl-5-(4-(trifluoromethyl)phenyl) isoxazole-3-carboxamide]
10.8 | 5000 | Cc1c(C(=O)Nc2c(C)n(C)n(C3CCCCC3)c2=O)noc1-c1ccc2occc2c1 [Example 054, 5-(Benzofuran-5-yl)-N-(2-cyclohexyl-1,5-dimethyl-3-oxo-2,3-dihydro-1H-pyrazol-4-yl)-4-methylisoxazole-3-carboxamide]
450 | 19200 | Cc1c(NC(=O)c2noc(-c3ccc(Cl)cc3Cl)c2C#N)c(=O)n(-c2ccccc2F)n1C [Example 042, 4-Cyano-5-(2,4-dichlorophenyl)-N-(2-(2-fluorophenyl)-1,5-dimethyl-3-oxo-2,3-dihydro-1H-pyrazol-4-yl)isoxazole-3-carboxamide]
1160 | > 10000 | COc1ccc(-c2onc(C(=O)Nc3c(C)n(C)n(-c4ccccc4F)c3=O)c2Cl)c(F)c1 [Example 022, 4-Chloro-5-(2-fluoro-4-methoxyphenyl)-N-(2-(2-fluorophenyl)-1,5-dimethyl-3-oxo-2,3-dihydro-1H-pyrazol-4-yl) isoxazole-3-carboxamide]
220 | > 20000 | COc1ccc(-c2onc(C(=O)Nc3c(C)n(C)n(-c4ccccc4F)c3=O)c2F)c(Cl)c1 [Example 033, 5-(2-Chloro-4-methoxyphenyl)-4-fluoro-N-(2-(2-fluorophenyl)-1,5-dimethyl-3-oxo-2,3-dihydro-1H-pyrazol-4-yl)isoxazole-3-carboxamide]
23.5 | 6750 | Cc1c(C(=O)Nc2c(C)n(C)n(C3CCCCC3)c2=O)noc1-c1ccc(Cl)cc1 [Example 049, 5-(4-Chlorophenyl)-N-(2-cyclohexyl-1,5-dimethyl-3-oxo-2,3-dihydro-1H-pyrazol-4-yl)-4-methylisoxazole-3-carboxamide]
560 | > 20100 | COc1ccccc1-c1onc(C(=O)Nc2c(C)n(C)n(C3CCCCC3)c2=O)c1C [Example 051, N-(2-Cyclohexyl-1,5-dimethyl-3-oxo-2,3-dihydro-1H-pyrazol-4-yl)-5-(2-methoxyphenyl)-4-methylisoxazole-3-carboxamide]
109 | > 20200 | Cc1c(C(=O)Nc2c(C)n(C)n(C3CCCCC3)c2=O)noc1-c1cccc(F)c1F [Example 055, N-(2-Cyclohexyl-1,5-dimethyl-3-oxo-2,3-dihydro-1H-pyrazol-4-yl)-5-(2,3-difluorophenyl)-4-methylisoxazole-3-carboxamide]
260 | > 20200 | COc1ccc(-c2onc(C(=O)Nc3c(C)n(C)n(C4CCCCC4)c3=O)c2C2CC2)c(F)c1 [Example 086, N-(2-Cyclohexyl-1,5-dimethyl-3-oxo-2,3-dihydro-1H-pyrazol-4-yl)-4-cyclopropyl-5-(2-fluoro-4-methoxyphenyl) isoxazole-3-carboxamide]
36 | 17800 | Cc1c(NC(=O)c2noc(-c3ccc(Cl)cc3Cl)c2Br)c(=O)n(-c2ccccc2F)n1C [Example 037, 4-Bromo-5-(2,4-dichlorophenyl)-N-(2-(2-fluorophenyl)-1,5-dimethyl-3-oxo-2,3-dihydro-1H-pyrazol-4-yl)isoxazole-3-carboxamide]
7.7 | 2400 | COc1ccc(-c2onc(C(=O)Nc3c(C)n(C)n(C4CCCCC4)c3=O)c2C)cc1C [Example 048, N-(2-Cyclohexyl-1,5-dimethyl-3-oxo-2,3-dihydro-1H-pyrazol-4-yl)-5-(4-methoxy-3-methylphenyl)-4-methylisoxazole-3-carboxamide]
965 | > 20200 | Cc1c(C(=O)Nc2c(C)n(C)n(-c3ccccc3F)c2=O)noc1-c1ccc2c(c1)CCO2 [Example 062, 5-(2,3-Dihydrobenzofuran-5-yl)-N-(2-(2-fluorophenyl)-1,5-dimethyl-3-oxo-2,3-dihydro-1H-pyrazol-4-yl)-4-methylisoxazole-3-carboxamide]
4150 | > 10000 | COc1cc(F)c(-c2onc(C(=O)Nc3c(C)n(C)n(-c4ccccc4F)c3=O)c2C)c(F)c1 [Example 046, 5-(2,6-difluoro-4-methoxyphenyl)-N-(2-(2-fluorophenyl)-1,5-dimethyl-3-oxo-2,3-dihydro-1H-pyrazol-4-yl)-4-methylisoxazole-3-carboxamide]
3.5 | 3100 | Cc1c(C(=O)Nc2c(C)n(C)n(C3CCCCC3)c2=O)noc1-c1ccc(C2CC2)cc1Cl [Example 019, 5-(2-Chloro-4-cyclopropylphenyl)-N-(2-cyclohexyl-1,5-dimethyl-3-oxo-2,3-dihydro-1H-pyrazol-4-yl)-4-methylisoxazole-3-carboxamide]
777 | > 10000 | CSc1ccc(-c2onc(C(=O)Nc3c(C)n(C)n(-c4ccccc4F)c3=O)c2C)cc1 [Example 011, N-(2-(2-Fluorophenyl)-1,5-dimethyl-3-oxo-2,3-dihydro-1H-pyrazol-4-yl)-4-methyl-5-(4-(methylthio)phenyl) isoxazole-3-carboxamide]
1050 | > 10000 | Cc1c(C(=O)Nc2c(C)n(C)n(-c3ccccc3F)c2=O)noc1-c1ccc(N(C)C)cc1 [Example 012, 5-(4-(Dimethylamino)phenyl)-N-(2-(2-fluorophenyl)-1,5-dimethyl-3-oxo-2,3-dihydro-1H-pyrazol-4-yl)-4-methylisoxazole-3-carboxamide]
810 | > 10000 | COc1ccc(-c2onc(C(=O)Nc3c(C)n(C)n(-c4ccccc4F)c3=O)c2Cl)c(F)c1Cl [Example 021, 4-Chloro-5-(3-chloro-2-fluoro-4-methoxyphenyl)-N-(2-(2-fluorophenyl)-1,5-dimethyl-3-oxo-2,3-dihydro-1H-pyrazol-4-yl)isoxazole-3-carboxamide]
98 | > 20200 | Cc1c(C(=O)Nc2c(C)n(C)n(C3CCCCC3)c2=O)noc1-c1ccc(OCC2CC2)cc1Cl [Example 072, 5-(2-Chloro-4-(cyclopropylmethoxy)phenyl)-N-(2-cyclohexyl-1,5-dimethyl-3-oxo-2,3-dihydro-1H-pyrazol-4-yl)-4-methylisoxazole-3-carboxamide]
33 | 17800 | COc1c(C)cccc1-c1onc(C(=O)Nc2c(C)n(C)n(C3CCCCC3)c2=O)c1C [Example 070, N-(2-Cyclohexyl-1 ,5-dimethyl-3-oxo-2,3-dihydro-1H-pyrazol-4-yl)-5-(2-methoxy-3-methylphenyl)-4-methylisoxazole-3-carboxamide]
5 | 3200 | Cc1c(C(=O)Nc2c(C)n(C)n(C3CCCCC3)c2=O)noc1-c1ccc(Cl)cc1C1CC1 [Example 069, 5-(4-Chloro-2-cyclopropylphenyl)-N-(2-cyclohexyl-1,5-dimethyl-3-oxo-2,3-dihydro-1H-pyrazol-4-yl)-4-methylisoxazole-3-carboxamide]
2300 | > 20200 | Cc1cc(C)c(-c2onc(C(=O)Nc3c(C)n(C)n(-c4ccccc4F)c3=O)c2C)c(C)c1 [Example 083, N-(2-(2-fluorophenyl)-1,5-dimethyl-3-oxo-2,3-dihydro-1H-pyrazol-4-yl)-5-mesityl-4-methylisoxazole-3-carboxamide]
